≈ marks a conversion by molar mass, not a printed value.
Legend:
[1] = system: Apis mellifera; details: acute, mortality
[2] = system: Cyprinus carpio; details: acute; duration: 96 hours; mortality
[3] = system: Daphnia magna; details: chronic/long-term; duration: 21 days; reproduction
[4] = system: Homo sapiens; details: clinical; duration: 15 days; inhalation; clinical signs
[5] = system: Oryctolagus sp.; details: oral
[6] = system: Tagia sp.; details: acute; mortality
[7] = system: Leuciscus idus; details: chronic/long-term; duration: 66 days; mortality
[8] = system: Oncorhynchus mykiss; details: for NOEC: chronic/long-term
[9] = system: Pimephales promelas; details: chronic/long-term; duration: 36 days; mortality
[10] = system: Folsomia candida; details: chronic/long-term; duration: 28 days; mortality
[11] = system: Gallus gallus; details: subchronic; duration: 36 days; oral; diet; M; Chicken; no effects
[12] = system: Hypoaspis aculeifer; details: chronic/long-term; duration: 14 days; mortality
[13] = system: Meleagris sp.; details: subchronic, oral, feed, no effects
[14] = system: Pontoscolex corethrurus; details: chronic/long-term; growth
[15] = system: Rattus norvegicus; details: oral; for NOAEL: chronic
[16] = system: Sus scrofa
[17] = system: Anatidae; details: short-term; duration: 28 days; oral; feed; no effects
[18] = system: Anser anser; details: short-term; duration: 28 days; oral; feed; no effects
[19] = system: Canidae; details: chronic; duration: 12 months; Dog Other; histopathology: nonneoplastic
[20] = system: Equus caballus; details: short-term; duration: 21 days; no effects

With CC(=O)O [Acetic acid] the LD50 ([1]; dermal) was over 96 µg/piece, the LD50 ([1]; oral, unspecified) was over 110 µg/piece and the LC50 [2] was 43.8 µg/mL (≈ 729 µM). For the same molecule, the NOEC [3] was 22.7 mg/L, the NOAEC [4] was 10 mg/m3 and the NOAEL ([5]; reproduction developmental, mortality) was 16 mg/kg-day. The LC50 [6] was over 1000 mg/kg.

In the case of CNC(=O)/C(=N/OC)c1ccccc1COc1cc(C)ccc1C [Dimoxystrobin], the NOEC [7] is reported as 15 µg/L, the NOEC ([8]; duration: 28 days, body weight) is reported as 10 µg/L and the NOEC ([8]; duration: 97 days, biomass) is reported as 1 µg/L. For the same molecule, the NOEC [9] was 16 µg/L.

O=C(O)c1ccccc1 [Benzoic acid] showed an NOEC [10] of 143 mg/kg, an LEL [11] of 1500 mg/kg-day and an NOEC [12] of 1000 mg/kg. For the same molecule, the LEL ([13]; duration: 42 days, F) was 1500 mg/kg, the LC50 ([8]; acute, duration: 96 hours, mortality) was over 9 µg/mL and the NOEC [14] was 384 mg/kg. The LD50 ([15]; acute, mortality) was over 1700 mg/kg-day, the NOAEL ([15]; duration: 2 years, diet, other) was 500 mg/kg-day and the NOAEL ([15]; duration: 16 weeks, histopathology: nonneoplastic) was 500 mg/kg-day. For the same molecule, the LEL ([16]; repeat dose other, F, Large White x Landrace, clinical chemistry) was 20000 mg/kg-day, the LEL ([16]; repeat dose other, oral, diet, Not specified, histopathology: nonneoplastic) was 10000 mg/kg-day and the LEL ([16]; subchronic, duration: 42 days, oral, diet, M/F, Not specified, no effects) was 5000 mg/kg-day. It also gave an LEL ([16]; subchronic, duration: 84 days, oral, diet, Not specified, organ weight) of 20000 mg/kg-day.

In the case of CO[C@@H]1[C@@H](O)[C@H](C)[C@@](O)(CC(=O)[O-])O[C@H]1[C@H](C)[C@H]1O[C@@]2(CC[C@@](C)([C@H]3CC[C@@](C)([C@@H]4O[C@@H]([C@H]5O[C@](C)(O)[C@H](C)C[C@@H]5C)C[C@@H]4O[C@H]4CC[C@H](OC)[C@@H](C)O4)O3)O2)C[C@H](O)[C@H]1C.[Na+] [Semduramicin sodium], the LEL [17] is reported as 25 mg/kg, the LEL [18] is reported as 25 mg/kg and the NOAEL [19] is reported as 0.3 mg/kg-day. It also gave an LEL [20] of 0.25 mg/kg-day, an LEL ([13]; duration: 12 weeks) of 25 mg/kg and an LEL ([5]; subchronic, duration: 42 days, diet, M/F, no effects) of 25 mg/kg-day. For the same molecule, the NOAEL ([15]; duration: 2 years, diet, clinical chemistry) was 0.125 mg/kg-day.
